Results as given in ChEMBL document CHEMBL1641575, “Conventional and microwave assisted synthesis of 2-oxo-4-substituted aryl-azetidine derivatives of benzotriazole: a new class of biological compounds” (Bioorg Med Chem Lett, 2011).
Values after ≈ are worked out from the molar mass of the structure shown.

How the values were obtained:
[1] = system: Mycobacterium tuberculosis; assay: Antitubercular activity against Mycobacterium tuberculosis H37Rv assessed as inhibition of colonies after 30 days by agar microdilution method; assay type: functional
Staphylococcus aureus = assay: Antibacterial activity against Staphylococcus aureus assessed as inhibition of visible growth after 48 hrs by agar dilution method; assay type: functional
Escherichia coli = assay: Antibacterial activity against Escherichia coli assessed as inhibition of visible growth after 48 hrs by agar dilution method; assay type: functional
Streptococcus pneumoniae = assay: Antibacterial activity against Streptococcus pneumoniae assessed as inhibition of visible growth after 48 hrs by agar dilution method; assay type: functional
Candida albicans = assay: Antifungal activity against Candida albicans assessed as inhibition of visible growth after 48 hrs by agar dilution method; assay type: functional
Aspergillus fumigatus = assay: Antifungal activity against Aspergillus fumigatus assessed as inhibition of visible growth after 48 hrs by agar dilution method; assay type: functional
Aspergillus niger = assay: Antifungal activity against Aspergillus niger assessed as inhibition of visible growth after 48 hrs by agar dilution method; assay type: functional
[2] = Cytotoxicity against african green monkey Vero C1008 cells at 0.01 to 0.1 ug/ml by neutral red uptake assay; assay type: cell-based; conditions: chlorocebus sabaeus

Row | Structure (SMILES) | MIC [1] | MIC (Staphylococcus aureus) | MIC (Escherichia coli) | MIC (Streptococcus pneumoniae) | MIC (Candida albicans) | MIC (Aspergillus fumigatus) | MIC (Aspergillus niger) | Activity [2]
1 | CN[C@@H]1[C@H](O[C@H]2[C@H](O[C@H]3[C@H](O)[C@@H](O)[C@H](N=C(N)N)[C@@H](O)[C@@H]3N=C(N)N)O[C@@H](C)[C@]2(O)C=O)O[C@@H](CO)[C@H](O)[C@H]1O [STREPTOMYCIN] | 4 µg/mL (≈ 6.88 µM) |  |  |  |  |  |  | 
2 | O=C1C(Cl)C(c2ccc([N+](=O)[O-])cc2)N1/N=C/CCn1nnc2ccccc21 (configuration not stated) | > 1.56 µg/mL | 0.1 µg/mL (≈ 0.251 µM) | 0.5 µg/mL (≈ 1.25 µM) | 0.5 µg/mL (≈ 1.25 µM) | 0.1 µg/mL (≈ 0.251 µM) | 0.5 µg/mL (≈ 1.25 µM) | 0.5 µg/mL (≈ 1.25 µM) | 
3 | Clc1ccc(COC(Cn2ccnc2)c2ccc(Cl)cc2Cl)c(Cl)c1 (configuration not stated) [MICONAZOLE] |  |  |  |  | 0.1 µg/mL (≈ 0.24 µM) | 0.1 µg/mL (≈ 0.24 µM) | 0.1 µg/mL (≈ 0.24 µM) | 
4 | CC[C@@H](CO)NCCN[C@@H](CC)CO [ETHAMBUTOL] | 1 µg/mL (≈ 4.89 µM) |  |  |  |  |  |  | 
5 | O=C1C(Cl)C(c2ccccc2)N1/N=C/CCn1nnc2ccccc21 (configuration not stated) | > 12.5 µg/mL | 1 µg/mL (≈ 2.83 µM) | 1 µg/mL (≈ 2.83 µM) | 0.5 µg/mL (≈ 1.41 µM) | 1 µg/mL (≈ 2.83 µM) | 1 µg/mL (≈ 2.83 µM) | 1 µg/mL (≈ 2.83 µM) | Non-toxic
6 | O=C1C(Cl)C(c2ccccc2[N+](=O)[O-])N1/N=C/CCn1nnc2ccccc21 (configuration not stated) | > 3.12 µg/mL | 0.5 µg/mL (≈ 1.25 µM) | 0.5 µg/mL (≈ 1.25 µM) | 0.1 µg/mL (≈ 0.251 µM) | 0.1 µg/mL (≈ 0.251 µM) | 0.1 µg/mL (≈ 0.251 µM) | 0.1 µg/mL (≈ 0.251 µM) | 
7 | O=C1C(Cl)C(c2ccccc2Cl)N1/N=C/CCn1nnc2ccccc21 (configuration not stated) | 3.12 µg/mL (≈ 8.05 µM) | 0.5 µg/mL (≈ 1.29 µM) | 0.1 µg/mL (≈ 0.258 µM) | 0.1 µg/mL (≈ 0.258 µM) | 1 µg/mL (≈ 2.58 µM) | 0.5 µg/mL (≈ 1.29 µM) | 0.5 µg/mL (≈ 1.29 µM) | 
8 | COc1ccccc1C1C(Cl)C(=O)N1/N=C/CCn1nnc2ccccc21 (configuration not stated) | > 6.25 µg/mL | 1 µg/mL (≈ 2.61 µM) | 2 µg/mL (≈ 5.21 µM) | 0.5 µg/mL (≈ 1.3 µM) | 0.1 µg/mL (≈ 0.261 µM) | 0.1 µg/mL (≈ 0.261 µM) | 0.1 µg/mL (≈ 0.261 µM) | 
9 | CC1COc2c(N3CCN(C)CC3)c(F)cc3c(=O)c(C(=O)O)cn1c23 (configuration not stated) [OFLOXACIN] |  | 0.1 µg/mL (≈ 0.277 µM) | 0.1 µg/mL (≈ 0.277 µM) | 0.1 µg/mL (≈ 0.277 µM) |  |  |  | 
10 | COc1ccc(C2C(Cl)C(=O)N2/N=C/CCn2nnc3ccccc32)cc1 (configuration not stated) | > 12.5 µg/mL | 1 µg/mL (≈ 2.61 µM) | 1 µg/mL (≈ 2.61 µM) | 0.5 µg/mL (≈ 1.3 µM) | 0.1 µg/mL (≈ 0.261 µM) | 0.1 µg/mL (≈ 0.261 µM) | 0.1 µg/mL (≈ 0.261 µM) | 
11 | O=C1C(Cl)C(c2ccc(Cl)cc2)N1/N=C/CCn1nnc2ccccc21 (configuration not stated) | > 3.12 µg/mL | 0.1 µg/mL (≈ 0.258 µM) | 0.1 µg/mL (≈ 0.258 µM) | 0.5 µg/mL (≈ 1.29 µM) | 0.5 µg/mL (≈ 1.29 µM) | 0.5 µg/mL (≈ 1.29 µM) | 1 µg/mL (≈ 2.58 µM) | 
12 | O=C1C(Cl)C(c2ccccc2Br)N1/N=C/CCn1nnc2ccccc21 (configuration not stated) | > 3.12 µg/mL | 0.1 µg/mL (≈ 0.231 µM) | 0.1 µg/mL (≈ 0.231 µM) | 0.5 µg/mL (≈ 1.16 µM) | 1 µg/mL (≈ 2.31 µM) | 0.5 µg/mL (≈ 1.16 µM) | 0.5 µg/mL (≈ 1.16 µM) | 
13 | O=C1C(Cl)C(c2cccc(Br)c2)N1/N=C/CCn1nnc2ccccc21 (configuration not stated) | 6.25 µg/mL (≈ 14.4 µM) | 0.1 µg/mL (≈ 0.231 µM) | 0.1 µg/mL (≈ 0.231 µM) | 0.1 µg/mL (≈ 0.231 µM) | 0.5 µg/mL (≈ 1.16 µM) | 0.1 µg/mL (≈ 0.231 µM) | 0.1 µg/mL (≈ 0.231 µM) | 
